Converted amounts (≈) assume the structure as drawn. The source made the active and inactive calls. The calls are words filed in the database; no cut-off is given here.
Columns and labels:
Staphylococcus aureus [1] = experiment: Antibacterial activity against Staphylococcus aureus ATCC 25923 after 24 hrs by micro broth dilution assay; assay type: functional; conditions: ATCC 25923, 24 h
Staphylococcus aureus [2] = experiment: Antibacterial activity against methicillin-resistant Staphylococcus aureus N315 after 24 hrs by micro broth dilution assay; assay type: functional; conditions: N315, 24 h
Bacillus subtilis = experiment: Antibacterial activity against Bacillus subtilis after 24 hrs by micro broth dilution assay; assay type: functional
Micrococcus luteus = experiment: Antibacterial activity against Micrococcus luteus ATCC4698 after 24 hrs by micro broth dilution assay; assay type: functional; conditions: ATCC4698, 24 h
Bacillus = experiment: Antibacterial activity against Bacillus proteus ATCC 13315 after 24 hrs by micro broth dilution assay; assay type: functional; conditions: ATCC 13315, 24 h
Escherichia coli [3] = experiment: Antibacterial activity against Escherichia coli DH52 after 24 hrs by micro broth dilution assay; assay type: functional; conditions: DH52, 24 h
Pseudomonas aeruginosa [4] = experiment: Antibacterial activity against Pseudomonas aeruginosa after 24 hrs by micro broth dilution assay; assay type: functional
Salmonella typhi = experiment: Antibacterial activity against Bacillus typhi after 24 hrs by micro broth dilution assay; assay type: functional, Salmonella enterica subsp. enterica serovar Typhi; conditions: Salmonella enterica
Escherichia coli [5] = experiment: Antibacterial activity against Escherichia coli JM109 after 24 hrs by micro broth dilution assay; assay type: functional; conditions: JM109, 24 h
Shigella dysenteriae = experiment: Antibacterial activity against Shigella dysenteriae after 24 hrs by micro broth dilution assay; assay type: functional
Candida albicans = experiment: Antifungal against Candida albicans ATCC 76615 after 24 hrs by two fold serial dilution method; assay type: functional; conditions: ATCC 76615, 24 h
Pichia norvegensis = experiment: Antifungal against Candida mycoderma after 24 hrs by two fold serial dilution method; assay type: functional
Cyberlindnera jadinii = experiment: Antifungal against Candida utilis after 24 hrs by two fold serial dilution method; assay type: functional; conditions: Williopsis jadinii
Saccharomyces cerevisiae = experiment: Antifungal against Saccharomyces cerevisiae after 24 hrs by two fold serial dilution method; assay type: functional
Aspergillus flavus = experiment: Antifungal against Aspergillus flavus after 24 hrs by two fold serial dilution method; assay type: functional
Staphylococcus aureus [6] = experiment: Ratio of MBC for Staphylococcus aureus ATCC 25923 to MIC for Staphylococcus aureus ATCC 25923; assay type: functional
Pseudomonas aeruginosa [7] = experiment: Ratio of MBC for Pseudomonas aeruginosa to MIC for Pseudomonas aeruginosa; assay type: functional
Staphylococcus aureus [8] = experiment: Antibacterial activity against methicillin-resistant Staphylococcus aureus N315 after 16 serial passages by two-fold serial dilution assay; assay type: functional, organism-based
L02 = experiment: Cytotoxicity against human LO2 cells at 100 to 500 ug/ml after 48 hrs by MTT assay; assay type: cell-based; conditions: l02, 48 h
HepG2 = experiment: Induction of ROS generation in human HepG2 cells at 6.25 to 50 uM by DCFH-DA staining based fluorescence microscopic analysis; assay type: cell-based; conditions: hepg2, 50 µM
Calf thymus DNA [9] = experiment: Binding affinity to calf thymus DNA assessed as hypochromic effect by UV-vis absorption spectra analysis; assay type: nucleic-acid assay; conditions: Bos taurus
Calf thymus DNA [10] = experiment: Competitive binding affinity to calf thymus DNA assessed as reduction in DNA_AO complex fluorescence intensity by acridine orange staining-based assay; assay type: nucleic-acid assay; conditions: Bos taurus
Calf thymus DNA [11] = experiment: Binding affinity to calf thymus DNA assessed as Stern-Volmer quenching constant at 2 x 10^-5 mol/L at pH 7.4 at 298 K in presence of potassium iodide by fluorescence assay (reference value: 46.23 L/mol); assay type: nucleic-acid assay; conditions: Bos taurus
Albumin [12] = molecular target: T1, Albumin (Homo sapiens, UniProt P02768); experiment: Binding affinity to HSA assessed as Stern-Volmer quenching constant at pH 7.4 at 284 K by fluorescence spectroscopic analysis; assay type: ADME; conditions: isolated protein
T1 sequence (P02768 whole entry): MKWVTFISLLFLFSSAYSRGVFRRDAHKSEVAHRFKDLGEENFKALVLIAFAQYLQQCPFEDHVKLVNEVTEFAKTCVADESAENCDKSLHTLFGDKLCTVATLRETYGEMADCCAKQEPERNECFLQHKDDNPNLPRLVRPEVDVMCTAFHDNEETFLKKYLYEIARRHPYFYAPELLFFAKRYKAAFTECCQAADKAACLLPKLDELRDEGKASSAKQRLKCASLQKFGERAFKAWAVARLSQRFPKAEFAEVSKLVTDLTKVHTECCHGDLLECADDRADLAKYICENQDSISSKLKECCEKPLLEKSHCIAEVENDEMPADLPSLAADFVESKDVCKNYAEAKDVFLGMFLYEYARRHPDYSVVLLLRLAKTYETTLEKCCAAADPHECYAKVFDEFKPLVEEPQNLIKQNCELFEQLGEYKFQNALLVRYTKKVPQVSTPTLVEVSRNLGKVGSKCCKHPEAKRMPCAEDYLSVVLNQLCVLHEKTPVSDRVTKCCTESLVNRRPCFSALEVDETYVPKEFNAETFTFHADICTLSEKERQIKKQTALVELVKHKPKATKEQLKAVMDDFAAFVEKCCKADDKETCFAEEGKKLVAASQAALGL

Albumin [13] = molecular target: T1, Albumin; experiment: Binding affinity to HSA assessed as Stern-Volmer quenching constant at pH 7.4 at 298 K by fluorescence spectroscopic analysis; assay type: ADME; conditions: isolated protein
Albumin [14] = molecular target: T1, Albumin; experiment: Binding affinity to HSA assessed as Stern-Volmer quenching constant at pH 7.4 at 303 K by fluorescence spectroscopic analysis; assay type: ADME; conditions: isolated protein
Staphylococcus aureus [15] = experiment: Antibacterial activity against Staphylococcus aureus ATCC 25923 incubated for 24 hrs followed by plating onto tryptic soy agar medium and measured after 24 hrs; assay type: functional; conditions: ATCC 25923, 24 h
Staphylococcus aureus [16] = experiment: Antibacterial activity against methicillin-resistant Staphylococcus aureus N315 incubated for 24 hrs followed by plating onto tryptic soy agar medium and measured after 24 hrs; assay type: functional; conditions: N315, 24 h
Pseudomonas aeruginosa [17] = experiment: Antibacterial activity against Pseudomonas aeruginosa incubated for 24 hrs followed by plating onto tryptic soy agar medium and measured after 24 hrs; assay type: functional
Calf thymus DNA [18] = experiment: Binding affinity to calf thymus DNA by UV-vis absorption spectra analysis; assay type: nucleic-acid assay; conditions: Bos taurus
Albumin [19] = molecular target: T1, Albumin; experiment: Binding affinity to HSA assessed as increase in absorption intensity by UV-vis absorption spectra analysis; assay type: ADME; conditions: isolated protein
Albumin [20] = molecular target: T1, Albumin; experiment: Binding affinity to HSA at 0.2 to 1 10'5 mol/L by synchronous fluorescence […]; assay type: ADME; conditions: isolated protein

## Cc1ccc(-c2cc(-c3nc4ccccc4[nH]3)nc(N)n2)cc1
Staphylococcus aureus [1]
  MIC: 8 µg/mL (≈ 26.5 µM)
Staphylococcus aureus [2]
  MIC: 8 µg/mL (≈ 26.5 µM)
Bacillus subtilis
  MIC: 8 µg/mL (≈ 26.5 µM)
Micrococcus luteus
  MIC: 8 µg/mL (≈ 26.5 µM)
Bacillus
  MIC: 4 µg/mL (≈ 13.3 µM)
Escherichia coli [3]
  MIC: 1 µg/mL (≈ 3.32 µM)
Pseudomonas aeruginosa [4]
  MIC: 4 µg/mL (≈ 13.3 µM)
Salmonella typhi
  MIC: 2 µg/mL (≈ 6.64 µM)
Escherichia coli [5]
  MIC: 2 µg/mL (≈ 6.64 µM)
Shigella dysenteriae
  MIC: 16 µg/mL (≈ 53.1 µM)
Candida albicans
  MIC: 8 µg/mL (≈ 26.5 µM)
Pichia norvegensis
  MIC: 4 µg/mL (≈ 13.3 µM)
Cyberlindnera jadinii
  MIC: 4 µg/mL (≈ 13.3 µM)
Saccharomyces cerevisiae
  MIC: 4 µg/mL (≈ 13.3 µM)
Aspergillus flavus
  MIC: 1 µg/mL (≈ 3.32 µM)
Staphylococcus aureus [6]
  Ratio: 1
Pseudomonas aeruginosa [7]
  Ratio: 2
Staphylococcus aureus [8]
  Activity: Active
L02
  Activity: Non-Toxic
HepG2
  Activity: Non-Toxic
Calf thymus DNA [9]
  Activity: Active
Calf thymus DNA [10]
  Activity: Dose-dependent effect
Calf thymus DNA [11]
  KSV: 39.9 L/mol
Albumin [12]
  KSV: 1.96 ×10⁵ L/mol
Albumin [13]
  KSV: 1.9 ×10⁵ L/mol
Albumin [14]
  KSV: 1.73 ×10⁵ L/mol
Staphylococcus aureus [15]
  MBC: 8 µg/mL (≈ 26.5 µM)
Staphylococcus aureus [16]
  MBC: 8 µg/mL (≈ 26.5 µM)
Pseudomonas aeruginosa [17]
  MBC: 8 µg/mL (≈ 26.5 µM)
Calf thymus DNA [18]
  K: 1.54 ×10⁴ L/mol
Albumin [19]
  Activity: Active
Albumin [20]
  Activity: Active
